The nature of data set [1]: ASSAY (IV) determination of solubility. Format: physicochemical. In short, it runs like this:
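Solubility measured by UPLC of supernatant after centrifugation, following 18 h at room temperature. Peptide ([…] in water) was diluted 1:1 into 100 mM glycylglycine (pH 3.0, 4.0, 5.0) or bistrispropane (pH 6.0-8.0).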

The target in data set [2] is T1, rat amylin receptor (rat calcitonin receptor + rat RAMP 3) (Rattus norvegicus, UniProt P32214+Q9JJ73).
T1 construct: expressed in transfected cells; host or cells: BHK tk'ts 13 (transient, FuGENE 6), membranes
T1 sequence (P32214 25-479 isoform P32214-2 limits assumed): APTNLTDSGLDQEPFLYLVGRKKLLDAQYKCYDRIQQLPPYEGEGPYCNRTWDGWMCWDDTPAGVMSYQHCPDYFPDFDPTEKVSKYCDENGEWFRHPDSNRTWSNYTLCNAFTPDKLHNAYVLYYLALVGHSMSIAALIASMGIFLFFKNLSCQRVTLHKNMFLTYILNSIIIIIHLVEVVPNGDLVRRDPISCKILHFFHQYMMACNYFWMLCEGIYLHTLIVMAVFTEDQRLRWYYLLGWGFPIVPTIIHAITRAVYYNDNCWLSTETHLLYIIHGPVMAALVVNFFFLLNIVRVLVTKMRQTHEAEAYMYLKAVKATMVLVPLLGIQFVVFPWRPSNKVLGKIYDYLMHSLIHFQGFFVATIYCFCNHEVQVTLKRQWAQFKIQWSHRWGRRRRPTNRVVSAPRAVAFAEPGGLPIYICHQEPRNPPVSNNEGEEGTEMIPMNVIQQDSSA
T1 sequence (Q9JJ73 23-147 partner): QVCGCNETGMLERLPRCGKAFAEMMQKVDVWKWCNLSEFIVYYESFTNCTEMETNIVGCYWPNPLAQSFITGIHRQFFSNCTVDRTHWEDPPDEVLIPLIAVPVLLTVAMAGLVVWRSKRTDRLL
Description: ASSAY (VI) binding to the rat amylin receptor. Conditions: for pIC50: binding to rat amylin receptor, read-out: rAmylin-R bind IC50. In short, it runs like this: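 The cell-membrane assay assessed binding at the rat amylin receptor. BHK tk′ts 13 cells were transfected transiently with rat calcitonin receptor, with FuGENE® 6 (Roche) as the transfection reagent, used per the manufacturer's recommendations. Approximately 48 hours after transfection the cells were harvested, and membranes were prepared for measuring binding.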

In data set [3] the target is T2, human calcitonin receptor (Homo sapiens, UniProt P30988).
T2 construct: expressed in transfected cells
T2 sequence (P30988 25-474): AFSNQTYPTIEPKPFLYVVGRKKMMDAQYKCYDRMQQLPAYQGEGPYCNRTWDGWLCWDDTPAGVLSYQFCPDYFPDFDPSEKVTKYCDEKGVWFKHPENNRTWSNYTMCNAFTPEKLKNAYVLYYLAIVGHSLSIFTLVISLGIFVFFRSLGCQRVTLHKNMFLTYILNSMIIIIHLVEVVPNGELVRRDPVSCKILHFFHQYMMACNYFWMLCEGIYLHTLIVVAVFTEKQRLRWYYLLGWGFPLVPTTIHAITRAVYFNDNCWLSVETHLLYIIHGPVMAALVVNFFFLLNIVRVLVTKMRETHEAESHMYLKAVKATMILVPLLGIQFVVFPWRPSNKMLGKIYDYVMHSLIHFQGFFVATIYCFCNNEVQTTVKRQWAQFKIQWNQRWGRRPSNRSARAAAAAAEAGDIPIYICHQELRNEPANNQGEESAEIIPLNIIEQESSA
Description: ASSAY (VII) binding to the human calcitonin receptor (SPA, 125I-Calcitonin).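 Further: cell membranes (35 ng/µL) combined with SPA beads in 40 µL of pH 7.4 Hepes buffer, 384-well format, signal counted on a TopCounter instrument.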 The conditions noted are these: read-out: hCTR bind IC50.

For data set [4], the target named is T3, human calcitonin (a) receptor in BHK570 cells (Homo sapiens, UniProt P30988).
T3 construct: expressed in transfected cells
T3 sequence (P30988 25-474): T2 sequence (P30988 25-474)
Description: ASSAY (II)a functional assay, human calcitonin receptor (CRE luciferase). It counts as cell-based. Conditions: read-out: hCTR funct. EC50. In short, it runs like this:
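Read-out: CRE-driven luciferase luminescence, single photon counting, after 30 min at room temperature with LucLite. BHK cells expressed calcitonin receptor alone or with RAMP-3 (amylin 3(a)). Cells were stimulated 3 h at 37° C in DMEM, 10% FBS, 10 mM Hepes, pH 7.4.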

In the next data set the target is T4, rat calcitonin receptor (Rattus norvegicus, UniProt P32214).
T4 construct: expressed in transfected cells; host or cells: BHK tk'ts 13 (transient, FuGENE 6), membranes
T4 sequence (P32214 25-479 isoform P32214-2 limits assumed): T1 sequence (P32214 25-479 isoform P32214-2 limits assumed)
The data set can be described thus: ASSAY (VIII) binding to the rat calcitonin receptor. The conditions noted are these: Table 7, read-out: rCTR bind IC50. In short, it runs like this:
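BHK tk′ts 13 cells, transient rat calcitonin receptor transfection; DMEM + 10% FBS; harvest ~48 h post-transfection; membrane prep.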

Setting [5] is: bistrispropane buffer, pH 6.5, read-out: Solubility pH 6.5 Concentration.
Setting [6] is: bistrispropane buffer, pH 7.5, read-out: Solubility pH 7.5 Concentration.
The mark [7] stands for this setting: bistrispropane buffer, pH 6.0, read-out: Solubility pH 6.0 Concentration.
[8] abbreviates: bistrispropane buffer, pH 7.0, read-out: Solubility pH 7.0 Concentration.
Where [9] appears, read: bistrispropane buffer, pH 8.0, read-out: Solubility pH 8.0 Concentration.
[10] abbreviates: glycylglycine buffer, pH 3.0, read-out: Solubility pH 3.0 Concentration.
[11] abbreviates: glycylglycine buffer, pH 4.0, read-out: Solubility pH 4.0 Concentration.
[12] abbreviates: glycylglycine buffer, pH 5.0, read-out: Solubility pH 5.0 Concentration.
Setting [13] is: Table 7, rat binding selectivity, rCTR IC50 / rAmylin-R IC50.
Setting [14] is: Table 7a (preferred compounds), rat binding selectivity, rCTR IC50 / rAmylin-R IC50.
[15] abbreviates: ratio of rCTR bind IC50 to rAmylin-R bind IC50.

pEC50, pIC50: −log10 of the molar value. Like-named read-outs stand apart in the source and are kept apart here. Numbered stars: 1 amine (or outer) side, 2 acyl side, 3 side chain; on linkers, the order of the positions; unused ones are H or OH. Bridge positions count the residues as written; N and C are the ends. Side chains are listed from the residue outwards. Peptide text beside a SMILES is read from it. * marks the point of attachment. C20 diacid = O=C(O)CCCCCCCCCCCCCCCCCCC(=O)*; γGlu = O=C(O)[C@H](CCC(=O)[*:2])N[*:1]; AEEA = NCCOCCOCC(=O)O

As for `CC[C@H](C)[C@H](NC(=O)[C@H](C)NC(=O)CNC(=O)[C@H](Cc1ccccc1)NC(=O)[C@H](CC(N)=O)NC(=O)[C@@H]1CCCN1C(=O)[C@H](CO)NC(=O)[C@H](CO)NC(=O)[C@H](Cc1c[nH]cn1)NC(=O)[C@H](CCCNC(=N)N)NC(=O)[C@H](CC(C)C)NC(=O)[C@H](Cc1ccccc1)NC(=O)[C@H](CC(N)=O)NC(=O)[C@H](C)NC(=O)[C@H](CC(C)C)NC(=O)[C@H](CCCNC(=N)N)NC(=O)[C@H](CCC(N)=O)NC(=O)[C@@H](NC(=O)[C@H](C)NC(=O)[C@@H]1CSSC[C@H](NC(=O)[C@@H](N)CCCCNC(=O)CC[C@H](NC(=O)CCCCCCCCCCCCCCCCCCC(=O)O)C(=O)O)C(=O)N[C@@H](CC(N)=O)C(=O)N[C@@H]([C@@H](C)O)C(=O)N[C@@H](C)C(=O)N[C@@H]([C@@H](C)O)C(=O)N1)[C@@H](C)O)C(=O)N1CCC[C@H]1C(=O)N[C@@H](CO)C(=O)N[C@@H](CO)C(=O)N[C@H](C(=O)N[C@@H](CC(N)=O)C(=O)N[C@H](C(=O)NCC(=O)N[C@@H](CCCNC(=N)N)C(=O)N[C@@H](CC(N)=O)C(=O)N[C@H](C(=O)N[C@@H](Cc1ccc(O)cc1)C(N)=O)[C@@H](C)O)C(C)C)[C@@H](C)O` [Example 79] (H-K([γGlu-C20 diacid])CNTATCATQRLANFLRHSSPNFGAIPSSTNVGRNTY-NH2; disulfide 2-7 (inferred); N-terminus assumed), the solubility at 18 h in data set [1] (setting [5]), in data set [1] (setting [6]), in data set [1] (setting [7]), in data set [1] (setting [8]), in data set [1] (setting [9]) and in data set [1] (setting [10]) was no less than 200 µM throughout. Further, the solubility at 18 h in data set [1] (setting [11]) and in data set [1] (setting [12]) was no less than 200 µM each time. The values for the pIC50 (in data set [2] (Table 7); in data set [3]; on rat calcitonin receptor) were 8.78, 7.44 and 7.45, respectively. In addition, the “Ratio rCT/rAmylin binding” value in data set [2] (setting [13]), in data set [2] (setting [14]) and in data set [2] (setting [15]) was 21.5 throughout. In addition, in data set [4], the pEC50 (usually the negative decadic logarithm of the EC50, by convention in mol/L) was 8.40.

For the compound `CC[C@H](C)[C@H](NC(=O)[C@H](C)NC(=O)CNC(=O)[C@H](Cc1ccccc1)NC(=O)[C@H](CC(N)=O)NC(=O)[C@@H]1CCCN1C(=O)[C@H](CO)NC(=O)[C@H](CO)NC(=O)[C@H](Cc1c[nH]cn1)NC(=O)[C@H](CCCNC(=N)N)NC(=O)[C@H](CC(C)C)NC(=O)[C@H](Cc1ccccc1)NC(=O)[C@H](CCCNC(=N)N)NC(=O)[C@H](C)NC(=O)[C@H](CC(C)C)NC(=O)[C@H](CCCNC(=N)N)NC(=O)[C@H](CCC(N)=O)NC(=O)[C@@H](NC(=O)[C@H](C)NC(=O)[C@@H]1CSSC[C@H](NC(=O)[C@@H](N)CCCCNC(=O)COCCOCCNC(=O)CC[C@H](NC(=O)CCCCCCCCCCCCCCCCCCC(=O)O)C(=O)O)C(=O)N[C@@H](CC(N)=O)C(=O)N[C@@H]([C@@H](C)O)C(=O)N[C@@H](C)C(=O)N[C@@H]([C@@H](C)O)C(=O)N1)[C@@H](C)O)C(=O)N1CCC[C@H]1C(=O)N[C@@H](CO)C(=O)N[C@@H](CO)C(=O)N[C@H](C(=O)N[C@@H](CC(N)=O)C(=O)N[C@H](C(=O)NCC(=O)N[C@@H](CO)C(=O)N[C@@H](CC(N)=O)C(=O)N[C@H](C(=O)N[C@@H](Cc1ccc(O)cc1)C(N)=O)[C@@H](C)O)C(C)C)[C@@H](C)O` [Example 82] (H-K([AEEA-γGlu-C20 diacid])CNTATCATQRLARFLRHSSPNFGAIPSSTNVGSNTY-NH2; disulfide 2-7; N-terminus assumed), the solubility at 18 h in data set [1] (setting [5]), in data set [1] (setting [6]), in data set [1] (setting [7]), in data set [1] (setting [8]), in data set [1] (setting [9]) and in data set [1] (setting [10]) was no less than 200 µM each time. In addition, the solubility at 18 h in data set [1] (setting [11]) and in data set [1] (setting [12]) was no less than 200 µM in each case. For the same compound, the pIC50 – broadly, the negative decadic logarithm of the IC50, by convention in mol/L – is 8.78 in data set [2] (Table 7), 7.05 in data set [3] and 6.84 on rat calcitonin receptor. Further, the “Ratio rCT/rAmylin binding” value in data set [2] (setting [13]), in data set [2] (setting [14]) and in data set [2] (setting [15]) was 87.0 in each case. Also, the pEC50 in data set [4] was 7.90.
